Tests used:
[1] = stability of the salt (dosage form, drying and milling, drug substance); type: physicochemical
Excerpt: (§1) The problem of selecting a pharmaceutically acceptable salt form for 3-ethyl-5-[5-(4-ethylpiperazin-1-ylsulphonyl)-2-(2-methoxyethoxy) pyridin-3-yl]-2-(pyridin-2-yl)methyl-2,6-dihydro-7H-pyrazolo[4,3-d]pyrimidin-7-one has been solved by the surprising finding that the anhydrous para-toluene sulphonate salt of formula (I) meets the above criteria for a pharmaceutically acceptable salt. […] This is particularly surprising as initial predictions would indicate that the toslyate salt would form a hydrate, especially given the fact that the besylate salt and other salts investigated hydrated as predicted.

[2] = investigation of hydrate and polymorph formation of salts; type: physicochemical; conditions: for formation of crystalline hydrates: under a range of conditions
Excerpt: Hydrated salts can provide particular issues in processing, especially during for example the milling and/or drying stages. It has been disclosed that the tendency of organic molecules to hydrate can be predicted from their molecular structure, “Hydration in organic crystals: prediction from molecular structure”, Desiraju, Gautam R. Sch. Chem., Univ. Hyderabad, Hyderabad, 500 134, India. J. Chem. Soc., Chem. Commun. (1991), Issue 6, 426-8. CODEN: JCCCAT; ISSN: 0022-4936. (EN) CAN 114:237859. […] Several of the salts investigated form hydrates.
as §1
4-{6-Ethoxy-5-[3-ethyl-6,7-dihydro-7-oxo-2-(2-pyridylmethyl)-2H-pyrazolo[4,3-d]pyrimidin-5-yl]-3-pyridylsulfonyl}1-ethylpiperazine (100 g, 0.16 mol) was heated in 2-butanone/6.0% water (600 mL) to 50° C. yielding a pale yellow solution. The reaction mixture was heated to azetropically distil of 160 ml of solvent to remove water. The distilled solution was warmed to 60° C. and the acid solution of p-toluenesulfonic acid monohydrate (31.11 g, 0.16 mol) dissolved in 2-butanone (140 mL) was added over an hour. During the addition of the acid slow crystallisation was observed. The reaction mixture was slowly cooled from 60° C. to 0-5° C. over three hours, and stirred for a further hour, then filtered off the solid, washed with 2-butanone (200 mL) and dried under vacuum at 50° C. to afford the title compound (116 g, 93.7%) as a white solid. Mpt 240° C. (DMSOd6): 1.20 (6H, m), 2.23 (3H, st), 2.75 (2H, m), 2.97 (2H, q), 3.18 (4H, m), 3.35 (3H, s), 3.55 (2H, m), 3.68 (2H, m), 3.83 (2H, m), 4.59 (2H, m), 5.70 (2H, s), 7.08 (2H, d), 7.20 (1H, d), 7.34 (1H, m), 7.43 (2H, d), 7.80 (1H, m), 8.35 (1H, d), 8.70 (1H, d), 8.74 (1H, d). […] Mpt quoted +/−5° C. preferably +/−2° C. […] Additional experiments have shown that on re-slurrying in a mixture of methyl ethyl ketone and water these further polymorphs can be converted to the compound of Example 1.

Row | Structure (SMILES) | drug substance stability profile [1] | physical dosage form stability [1] | stability during drying and milling processes [1] | formation of crystalline hydrates [2] | further polymorphs detected via differential scanning calorimetry (DSC) ([2]; under certain conditions, convertible to Example 1 form by re-slurrying in methyl ethyl ketone and water) | number of anhydrous polymorphs [2]
1 | CCc1c2nc(-c3cc(S(=O)(=O)N4CCN(CC)CC4)cnc3OCCOC)[nH]c(=O)c2nn1Cc1ccccn1 [Example 1] | desirable drug substance stability profile | good physical dosage form stability | demonstrates stability during drying and milling processes | does not appear to form crystalline hydrates | at least two further polymorphs | –
2 | CCc1c2nc(-c3cc(S(=O)(=O)N4CCN(CC)CC4)cnc3OCCOC)[nH]c(=O)c2nn1Cc1ccccn1.O=S(=O)(O)c1ccccc1 [besylate salt, besylate salt of 3-ethyl-5-[5-(4-ethylpiperazin-1-ylsulphonyl)-2-(2-methoxyethoxy)pyridin-3-yl]-2-(pyridin-2-yl)methyl-2,6-dihydro-7H-pyrazolo [4,3-d]pyrimidin-7-one, reference compound] | – | – | – | a hydrated polymorph of the besylate salt is indeed formed | – | at least 5
